Where a name gives a salt, the structure may show the parent alone. Blank lines part the entries; values can stand above or below the compound they belong to.
Experiments:
Assay in all cases: In vitro MMP inhibition, IC50 determination (fluorogenic substrate I)
Format in all cases: biochemical
Human recombinant MMP-1 = biological target: T1, Human recombinant MMP-1 (Homo sapiens, UniProt P03956)
T1 construct: made in house; host or cells: MMP-1-transfected HT-1080 cells (spent media)
T1 sequence (P03956 100-469): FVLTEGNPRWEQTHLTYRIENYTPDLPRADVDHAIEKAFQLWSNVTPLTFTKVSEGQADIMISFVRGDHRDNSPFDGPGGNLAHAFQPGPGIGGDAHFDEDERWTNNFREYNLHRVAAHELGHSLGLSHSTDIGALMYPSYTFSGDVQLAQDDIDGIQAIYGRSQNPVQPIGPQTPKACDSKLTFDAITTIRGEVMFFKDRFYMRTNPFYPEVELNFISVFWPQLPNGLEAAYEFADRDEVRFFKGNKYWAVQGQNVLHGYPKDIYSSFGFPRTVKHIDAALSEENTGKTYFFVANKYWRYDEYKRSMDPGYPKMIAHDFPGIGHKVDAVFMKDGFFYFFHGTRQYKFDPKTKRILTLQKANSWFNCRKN
How it was run: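 APMA- or trypsin-activated enzyme, purified from spent media of transfected HT-1080 cells, incubated at room temperature with 4 μM MCA-Pro-Leu-Gly-Leu-Dpa-Ala-Arg-NH2 and graded inhibitor in Tris buffer pH 7.5 (10 mM CaCl2, 0.05% Brij). Cleavage read by fluorescence (ex 328/em 415 nm); IC50 from fluorescence reduction versus inhibitor concentration.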

Human recombinant MMP-2 = biological target: T2, Human recombinant MMP-2 (Homo sapiens, UniProt P08253)
T2 construct: made in house; host or cells: MMP-2-transfected p2AHT2 cells
T2 sequence (P08253 110-660): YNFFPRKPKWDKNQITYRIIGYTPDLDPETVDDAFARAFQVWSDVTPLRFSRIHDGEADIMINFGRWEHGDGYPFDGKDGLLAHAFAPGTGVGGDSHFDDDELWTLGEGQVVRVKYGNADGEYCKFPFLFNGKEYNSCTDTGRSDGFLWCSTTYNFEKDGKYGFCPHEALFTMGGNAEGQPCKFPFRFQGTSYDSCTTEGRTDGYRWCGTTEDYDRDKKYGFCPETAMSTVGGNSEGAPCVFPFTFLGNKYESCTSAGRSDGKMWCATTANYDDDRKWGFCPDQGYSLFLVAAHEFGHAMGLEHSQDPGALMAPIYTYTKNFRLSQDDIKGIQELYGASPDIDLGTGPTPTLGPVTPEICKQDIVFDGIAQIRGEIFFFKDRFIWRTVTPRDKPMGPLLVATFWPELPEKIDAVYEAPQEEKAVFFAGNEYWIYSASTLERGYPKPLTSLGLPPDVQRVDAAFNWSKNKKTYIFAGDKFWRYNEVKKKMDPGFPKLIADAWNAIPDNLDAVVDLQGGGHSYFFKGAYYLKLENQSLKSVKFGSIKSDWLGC
How it was run: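 APMA- or trypsin-activated recombinant MMP-2 was incubated at room temperature with serial inhibitor dilutions in Tris buffer pH 7.5 (100 mM NaCl, 10 mM CaCl2, 0.05% Brij), with DMSO from 1% stocks, and 4 μM substrate I. Cleavage was read by fluorescence at 328/415 nm; IC50 was taken from the loss of fluorescence versus inhibitor concentration.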

Human recombinant MMP-9 = biological target: T3, Human recombinant MMP-9 (Homo sapiens, UniProt P14780)
T3 construct: made in house; host or cells: MMP-9-transfected HT1080 cells (spent media)
How it was run: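 MMP-9 proenzyme purified from transfected HT1080 cell media, activated with APMA or trypsin. Compound dilutions in pH 7.5 Tris/NaCl/CaCl2 buffer with 0.05% polyoxyethylene 23 lauryl ether, incubated at room temperature with 4 μM MCA/Dpa substrate I. IC50 from fluorescence loss (ex 328, em 415 nm) versus inhibitor concentration.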

Human recombinant MMP-13 = biological target: T4, Human recombinant MMP-13 (Homo sapiens, UniProt P45452)
T4 construct: made in house; host or cells: baculovirus / insect cells
How it was run: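 Fluorescence at 415 nm (excitation 328 nm) reports Gly-Leu cleavage of 4 μM quenched methoxycoumarin peptide substrate I. Human recombinant MMP-13, activated by trypsin or APMA, was incubated at room temperature with varied inhibitor concentrations in pH 7.5 Tris/NaCl/CaCl2 buffer; IC50 derived from reduced fluorescence.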

Human recombinant MMP-14 = biological target: T5, Human recombinant MMP-14 (Homo sapiens, UniProt P50281)
T5 construct: The catalytic domain enzyme was expressed in E. coli inclusion bodies, solubilized in urea; made in house
How it was run: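 Catalytic-domain MMP-14, expressed in E. coli and refolded, activated with APMA or trypsin; compounds incubated at room temperature with 4 μM fluorogenic substrate I (MCA-PLGL-Dpa-AR-NH2) in Tris/NaCl/CaCl2 buffer, pH 7.5. Fluorescence at ex 328/em 415 nm; IC50 from loss of fluorescence versus inhibitor concentration.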

[1] = value outside parentheses (Ki in parenthesis)
[2] = substrate (I) 4 μM, room temperature, values not in parenthesis

T3 sequence (P14780 107-707 limits assumed): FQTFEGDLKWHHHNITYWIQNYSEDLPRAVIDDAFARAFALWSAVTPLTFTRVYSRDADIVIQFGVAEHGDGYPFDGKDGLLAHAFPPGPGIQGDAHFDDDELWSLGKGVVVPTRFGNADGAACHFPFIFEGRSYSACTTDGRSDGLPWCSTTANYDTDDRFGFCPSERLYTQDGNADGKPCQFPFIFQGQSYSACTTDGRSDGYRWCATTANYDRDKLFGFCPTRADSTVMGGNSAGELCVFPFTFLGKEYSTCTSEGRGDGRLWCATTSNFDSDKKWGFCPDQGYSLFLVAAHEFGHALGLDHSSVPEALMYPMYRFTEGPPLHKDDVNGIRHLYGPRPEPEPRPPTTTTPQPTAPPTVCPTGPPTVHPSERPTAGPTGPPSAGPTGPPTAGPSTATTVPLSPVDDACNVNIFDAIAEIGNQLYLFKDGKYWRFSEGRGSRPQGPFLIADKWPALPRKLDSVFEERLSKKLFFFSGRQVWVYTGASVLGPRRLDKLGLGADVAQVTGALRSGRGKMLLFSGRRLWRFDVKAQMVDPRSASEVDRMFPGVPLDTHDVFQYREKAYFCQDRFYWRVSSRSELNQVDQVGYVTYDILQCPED

IC50 (Human recombinant MMP-1; value outside parentheses): > 10000 nM
IC50 (Human recombinant MMP-2; value outside parentheses): 163 nM
IC50 (Human recombinant MMP-9; value outside parentheses): 183 nM
IC50 (Human recombinant MMP-13; value outside parentheses): 14 nM
IC50 (Human recombinant MMP-14; value outside parentheses): 2370 nM
SMILES: CC(=O)Nc1cccc(OCCOc2ccc(S(=O)(=O)C3(C(=O)NO)CCOCC3)cc2)c1 [Example 670]

IC50 (Human recombinant MMP-1; [1]): > 10000 nM
IC50 (Human recombinant MMP-2; [1]): 110 nM
IC50 (Human recombinant MMP-9; [1]): 45 nM
IC50 (Human recombinant MMP-13; [1]): 15 nM
IC50 (Human recombinant MMP-14; [1]): > 10000 nM
SMILES: COc1ccc(CCCOc2ccc(S(=O)(=O)C3(C(=O)NO)CCOCC3)cc2)cc1OC [Example 466]

IC50 (Human recombinant MMP-1; value outside parentheses): > 10000 nM
IC50 (Human recombinant MMP-2; value outside parentheses): 1.52 nM
IC50 (Human recombinant MMP-9; value outside parentheses): 4450 nM
IC50 (Human recombinant MMP-13; value outside parentheses): 17.2 nM
IC50 (Human recombinant MMP-14; value outside parentheses): > 10000 nM
SMILES: CN(C)C(=O)c1cccc(OCCOc2ccc(S(=O)(=O)C3(C(=O)NO)CCOCC3)cc2)c1 [Example 666]

IC50 (Human recombinant MMP-1; value outside parentheses): > 10000 nM
IC50 (Human recombinant MMP-2; value outside parentheses): 45.2 nM
IC50 (Human recombinant MMP-9; value outside parentheses): 2300 nM
IC50 (Human recombinant MMP-13; value outside parentheses): 0.1 nM
IC50 (Human recombinant MMP-14; value outside parentheses): > 10000 nM
SMILES: O=C(NO)C1(S(=O)(=O)c2ccc(OCCCc3cc(-c4ccc(F)cc4)cs3)cc2)CCOCC1 [Example 607]

IC50 (Human recombinant MMP-1; value outside parentheses): > 10000 nM
IC50 (Human recombinant MMP-2; value outside parentheses): 136 nM
IC50 (Human recombinant MMP-9; value outside parentheses): 417 nM
IC50 (Human recombinant MMP-13; value outside parentheses): 0.6 nM
IC50 (Human recombinant MMP-14; value outside parentheses): > 10000 nM
SMILES: O=C(NO)C1(S(=O)(=O)c2ccc(OCCCc3cc(-c4ccc(F)c(F)c4)cs3)cc2)CCOCC1 [Example 580]

The remaining lines, values behind:

SMILES: O=C(NO)C1(S(=O)(=O)c2ccc(OCCCOc3ccc(F)cc3F)cc2)CCOCC1 [Example 445]
IC50 (Human recombinant MMP-1; [1]): 3320 nM
IC50 (Human recombinant MMP-2; [1]): 2.2 nM
IC50 (Human recombinant MMP-9; [1]): 44 nM
IC50 (Human recombinant MMP-13; [1]): 0.5 nM
IC50 (Human recombinant MMP-14; [1]): 546 nM

SMILES: Cc1ccc(C(=O)NCCCOc2ccc(S(=O)(=O)C3(C(=O)NO)CCOCC3)cc2)c(C)c1 [Example 373]
IC50 (Human recombinant MMP-1; [1]): > 10000 nM
IC50 (Human recombinant MMP-2; [1]): 940 nM
IC50 (Human recombinant MMP-9; [1]): 3940 nM
IC50 (Human recombinant MMP-13; [1]): 7 nM
IC50 (Human recombinant MMP-14; [1]): > 10000 nM

SMILES: CC[C@@H]1C(=O)N(CCCOc2ccc(S(=O)(=O)C3(C(=O)NO)CCOCC3)cc2)C(=O)N1c1ccccc1 [Example 106]
IC50 (Human recombinant MMP-1; value outside parenthesis): > 10000 nM
IC50 (Human recombinant MMP-2; value outside parenthesis): 1050 nM
IC50 (Human recombinant MMP-9; value outside parenthesis): > 10000 nM
IC50 (Human recombinant MMP-13; value outside parenthesis): 3.5 nM
IC50 (Human recombinant MMP-14; value outside parenthesis): > 10000 nM

SMILES: CN(C)c1ccc(NC(=O)CCCCOc2ccc(S(=O)(=O)C3(C(=O)NO)CCOCC3)cc2)cc1 [Example 20, 4-[[4-[[5-[[4-(dimethylamino)-phenyl]amino]-5-oxopentyl]oxy]phenyl]sulfonyl]tetrahydro-N-hydroxy-2H-pyran-4-carboxamide, Monohydrochloride]
IC50 (Human recombinant MMP-1; [2]): > 10000 nM
IC50 (Human recombinant MMP-2; [2]): 1.8 nM
IC50 (Human recombinant MMP-9; [2]): 498 nM
IC50 (Human recombinant MMP-13; [2]): 1.8 nM
IC50 (Human recombinant MMP-14; [2]): > 10000 nM

SMILES: COCCN1CCC(C(=O)NO)(S(=O)(=O)c2ccc(OCCCSc3nc4ccccc4o3)cc2)CC1 [Example 43, 4-([4-[3-(1,3-benzoxazol-2-ylthio)propoxy]phenyl]sulfonyl)-N-hydroxy-1-(2-methoxyethyl)piperidine-4-carboxamide Hydrochloride]
IC50 (Human recombinant MMP-1; [2]): > 10000 nM
IC50 (Human recombinant MMP-2; [2]): 4.8 nM
IC50 (Human recombinant MMP-9; [2]): 1 nM
IC50 (Human recombinant MMP-13; [2]): 1 nM
IC50 (Human recombinant MMP-14; [2]): 2080 nM

SMILES: O=C(NO)C1(S(=O)(=O)c2ccc(OCCCc3nc(-c4cc(F)ccc4F)no3)cc2)CCOCC1 [Example 211]
IC50 (Human recombinant MMP-1; value outside parenthesis): 9650 nM
IC50 (Human recombinant MMP-2; value outside parenthesis): 26.2 nM
IC50 (Human recombinant MMP-9; value outside parenthesis): 864 nM
IC50 (Human recombinant MMP-13; value outside parenthesis): 0.4 nM
IC50 (Human recombinant MMP-14; value outside parenthesis): > 10000 nM

SMILES: O=C(NO)C1(S(=O)(=O)c2ccc(OCCCc3nnc(-c4ccccc4Cl)o3)cc2)CCOCC1 [Example 261]
IC50 (Human recombinant MMP-1; value outside parenthesis): > 10000 nM
IC50 (Human recombinant MMP-2; value outside parenthesis): 178 nM
IC50 (Human recombinant MMP-9; value outside parenthesis): 1190 nM
IC50 (Human recombinant MMP-13; value outside parenthesis): 1.9 nM
IC50 (Human recombinant MMP-14; value outside parenthesis): > 10000 nM

SMILES: COCCN1CCC(C(=O)NO)(S(=O)(=O)c2ccc(OCCCNC(=O)c3ccc(OC(C)C)c(C)c3)cc2)CC1 [Example 230]
IC50 (Human recombinant MMP-1; value outside parenthesis): > 10000 nM
IC50 (Human recombinant MMP-2; value outside parenthesis): 555 nM
IC50 (Human recombinant MMP-9; value outside parenthesis): 1020 nM
IC50 (Human recombinant MMP-13; value outside parenthesis): 1.1 nM
IC50 (Human recombinant MMP-14; value outside parenthesis): > 10000 nM

SMILES: CC(C)(C)C1CCN(S(=O)(=O)CCCOc2ccc(S(=O)(=O)C3(C(=O)NO)CCOCC3)cc2)CC1 [Example 310]
IC50 (Human recombinant MMP-1; [1]): > 10000 nM
IC50 (Human recombinant MMP-2; [1]): 32 nM
IC50 (Human recombinant MMP-9; [1]): 1980 nM
IC50 (Human recombinant MMP-13; [1]): 3 nM
IC50 (Human recombinant MMP-14; [1]): > 10000 nM

SMILES: Cc1cc(-c2nnc(CCCOc3ccc(S(=O)(=O)C4(C(=O)NO)CCOCC4)cc3)o2)ccc1OC(C)C [Example 294]
IC50 (Human recombinant MMP-1; [1]): 4620 nM
IC50 (Human recombinant MMP-2; [1]): 100 nM
IC50 (Human recombinant MMP-9; [1]): 448 nM
IC50 (Human recombinant MMP-13; [1]): 4.3 nM
IC50 (Human recombinant MMP-14; [1]): > 10000 nM
